Columns and labels:
Assay in all cases: relative viability (nuclei count vs DMSO), 5 days (fraction); higher = more cells survive
[1] = compound: CCOC1=CC=CC=C1N=NC2=C(NN(C2=O)C3=NC(=CS3)C4=CC=CC=C4)C [BAM7] + COc1cccc2cc(-c3nc([C@H]4CC[C@H](C(=O)O)CC4)n4ncnc(N)c34)[nH]c12 [OSI-027] (partner 0.5 µM)
Method in brief: (§1)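 Values are medians from duplicate plates. Each reflects relative viability, defined as the nuclei count of treated wells over that of vehicle wells. Lung cancer cell lines in 1536-well plates were pin-tool dosed one day after seeding with one drug alone or with a fixed anchor-drug dose plus five library-drug doses (not always all listed) in √10 steps, then fixed, stained and imaged at 4× after 5 days.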

[2] = compound: CCn1c(-c2nonc2N)nc2c(C#CC(C)(C)O)ncc(OC[C@H]3CCCNC3)c21 + CCNC(=O)c1noc(-c2cc(C(C)C)c(O)cc2O)c1-c1ccc(CN2CCOCC2)cc1 [Luminespib] (partner 0.01 µM)
Method in brief: as §1

[3] = compound: CCOC1=CC=CC=C1N=NC2=C(NN(C2=O)C3=NC(=CS3)C4=CC=CC=C4)C [BAM7] + N=C(N)NC(=N)NCCc1ccccc1 [Phenformin] (partner 250 µM)
Method in brief: as §1

[4] = compound: CCOC1=CC=CC=C1N=NC2=C(NN(C2=O)C3=NC(=CS3)C4=CC=CC=C4)C [BAM7] + C[C@]1(O)C[C@@H](c2nc(-c3ccc4ccc(-c5ccccc5)nc4c3)c3c(N)nccn32)C1 [Linsitinib] (partner 1 µM)
Method in brief: as §1

| Cell Line | relative viability ([1]; first compound 0.5 µM) | relative viability ([1]; first compound 5 µM) | relative viability ([1]; first compound 15.81 µM) | relative viability ([1]; first compound 50 µM) | relative viability ([2]; first compound 0.01 µM) | relative viability ([2]; first compound 0.03162 µM) | relative viability ([2]; first compound 0.1 µM) | relative viability ([2]; first compound 0.3162 µM) | relative viability ([2]; first compound 1 µM) | relative viability ([3]; first compound 0.5 µM) | relative viability ([3]; first compound 5 µM) | relative viability ([3]; first compound 15.81 µM) | relative viability ([3]; first compound 50 µM) | relative viability ([4]; first compound 0.5 µM) | relative viability ([4]; first compound 5 µM) | relative viability ([4]; first compound 15.81 µM) | relative viability ([4]; first compound 50 µM) |
| --- | --- | --- | --- | --- | --- | --- | --- | --- | --- | --- | --- | --- | --- | --- | --- | --- | --- |
| H3255 | 0.593 | 0.622 | 0.443 | 0.568 | 0.84 | 0.754 | 0.838 | 0.771 | 0.958 | 0.353 | 0.343 | 0.386 | 0.384 | 0.901 | 1.02 | 0.606 | 0.848 |
| 201T | 0.772 | 0.662 | 0.708 | 0.705 | 1.04 | 1.03 | 1.02 | 1.03 | 1.03 | 0.465 | 0.464 | 0.474 | 0.483 | 1.04 | 1.09 | 0.963 | 1.03 |
| NCI-H2126 | 0.662 | 0.733 | 0.736 | 0.641 | 0.85 | 0.914 | 0.892 | 0.859 | 0.961 | 0.494 | 0.54 | 0.473 | 0.556 | 0.7 | 0.63 | 0.706 | 0.704 |
| HOP-62 | 0.888 | 0.87 | 0.808 | 0.92 | 0.903 | 0.878 | 0.913 | 0.876 | 0.967 | 0.668 | 0.867 | 0.664 | 0.714 | 1.09 | 1.23 | 0.904 | 0.756 |
| CAL-12T | 0.553 | 0.492 | 0.432 | 0.845 | 0.234 | 1.07 | 0.431 | 0.362 | 0.427 | 0.576 | 0.601 | 0.586 | 0.607 | 0.929 | 0.743 | 0.75 | 0.852 |
| NCI-H520 | 0.305 | 0.263 | 0.293 | 0.356 | 0.188 | 0.222 | 0.188 | 0.238 | 0.182 | 0.668 | 0.573 | 0.704 | 0.707 | 0.916 | 1.03 | 1.08 | 0.87 |
| NCI-H1755 | 0.81 | 0.698 | 0.689 | 0.719 | 0.455 | 0.519 | 0.556 | 0.513 | 0.423 | 0.657 | 0.657 | 0.611 | 0.645 | 1.01 | 1.06 | 1.02 | 0.978 |
| NCI-H2023 | 0.357 | 0.347 | 0.297 | 0.506 | 0.636 | 0.981 | 0.664 | 0.67 | 0.498 | 0.446 | 0.393 | 0.37 | 0.411 | 0.657 | 0.689 | 0.64 | 0.67 |
| NCI-H2009 | 0.68 | 0.758 | 0.581 | 0.689 | 1.07 | 0.981 | 1.06 | 0.986 | 0.983 | 0.497 | 0.542 | 0.426 | 0.465 | 1.27 | 1.2 | 1.15 | 1.16 |
